Results: paper PMC9718795, “Caffeic acid N-[3,5-bis(trifluoromethyl)phenyl] amide as a non-steroidal inhibitor for steroid 5α-reductase type 1 using a human keratinocyte cell-based assay and molecular dynamics” (Scientific Reports, 2022)

What was measured:
[1] = molecular target: T1, steroid 5α-reductase type 1 (SRD5A1) (Homo sapiens, UniProt P18405); experiment: HaCaT cell-based SRD5A1 inhibitory assay with direct DHT detection by HPTLC
T1 construct: HaCaTs-produced SRD5A1 smoothly converted testosterone to DHT; endogenous in cells; host or cells: HaCaT human keratinocytes
T1 sequence (P18405 1-259): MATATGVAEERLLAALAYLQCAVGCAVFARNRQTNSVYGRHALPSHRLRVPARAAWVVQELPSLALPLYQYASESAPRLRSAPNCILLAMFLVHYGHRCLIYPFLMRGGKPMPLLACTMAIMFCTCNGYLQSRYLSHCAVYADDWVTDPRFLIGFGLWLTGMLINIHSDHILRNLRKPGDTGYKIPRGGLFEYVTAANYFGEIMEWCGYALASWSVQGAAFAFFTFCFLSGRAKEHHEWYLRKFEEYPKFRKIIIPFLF

[2] = tested on: dermal papilla (DP) cells; experiment: In vitro cytotoxic MTT assay against DP cells; format: cell-based, human; settings: 0.5–50 µM, 24 h
Description: The cytotoxicity of caffeic acid and its amide derivatives were evaluated with two cell lines, human keratinocyte (HaCaT) and DP cells, using the common cell viability assay with MTT. HaCaT and DP cells were seeded at 1 × 10^4 cell/well in 96-well plates in a complete DMEM medium, incubated overnight, and treated with test compounds at 0–50 µM for 24 h. The stock solutions of all the test compounds were prepared in DMSO. Each compound was serially diluted in DMEM to achieve concentrations at 0.5–50 µM; DMEM was used as the negative control. After 24 h of treatment, the culture medium was removed, and cell viability was determined by adding 100 µL of 0.5 mg/mL MTT at 37 °C in darkness for 3 h. After removing the MTT solution, 100 µL of DMSO was added to each well to dissolve the purple formazan crystals. The absorbance was measured at 570 nm using a microplate reader, and the IC50 value was calculated. Each experiment was performed in triplicates.

SRD5A1 mRNA = SRD5A1 mRNA level by RT-qPCR in HaCaT cells; format: cell-based, human; settings: 0.5, 1 and 2.5 µM; 12 h and 24 h
Description: HaCaT cells (2 × 10^5 cells/well in 6 well-plates) were treated with compound 4 (0, 0.5, 1 and 2.5 µM) for 12 and 24 h. Then, total RNA was extracted by using Purelink RNA mini purification kit. The isolated RNA was purified by DNase I and further used as a template for synthesis of cDNA using RevertAid First Stand cDNA Synthesis Kit. Quantitative real-time PCR (RT-qPCR) was performed with a C100 Thermal Cycler (Bio-Rad CFX384 real-time pcr system) using Luna Universal qPCR Master Mix (M3003). Specific forward and reverse primers of the interested gene was indicated as following.
The reactions were incubated for 39 cycles of 95 °C for 5 s, 60 °C for 30 s and 65 °C for 5 s. The expression of target mRNA was determined as the relative comparison via the ΔCt method. The threshold (Ct) of target genes were normalized with GAPDH (Ct) values.

[3] = tested on: SRD5A1 protein expression; experiment: Western blot of SRD5A1 protein expression in HaCaT cells; format: cell-based, human
Description: HaCaT cells (1 × 10^5 cells/well in 6-well plates) were cultured in DMEM with or without compound 4 (0–2.5 µM) for 12 and 24 h. The cells were lysed with RIPA buffer containing 1% protease inhibitor and 1% phosphatase inhibitor on ice for 45 min. Then, the total protein from each sample was determined by bicinchoninic acid (BCA) protein assay kit (Cat No. 23225, Thermo Fisher Scientific, Rockford, IL, USA). The equal amount (40 µg) of protein sample was mixed with loading buffer and heated at 95 °C for 5 min before loaded to 10% sodium dodecyl sulfate–polyacrylamide gels (SDS-PAGE). The proteins were transferred onto PVDF membrane, which was further blocked with 5% BSA in TBST (25 mmol/L Tris–HCl; pH 7.4, 125 mmol/L NaCl, 0.1% Tween 20) at room temperature for 1 h. The primary antibody specific to SRD5A1 (1TFS-AB-PA575919, Thermo Fisher Scientific, Rockford, IL, USA) in dilution 1:1000 was added onto the membrane and incubated overnight at 4 °C. Then the membrane was washed 3 times × 7 min with TBST following with the immersion in the specific secondary antibody conjugated with horseradish peroxidase (HRP) for 1 h at room temperature. The signal of target protein was determined by using chemiluminescence HRP substrate (Thermo Scientific, Rockford, IL, USA) and the intensity of target protein was analyzed by analyst/PC densitometric software (Bio-Rad, Hercules, CA, USA).

HaCaTs-produced SRD5A1 = molecular target: T2, HaCaTs-produced SRD5A1 (Homo sapiens, UniProt P18405); experiment: Whole-cell-based kinetic study of HaCaT-produced SRD5A1 with HPTLC; design: Apparent Vmax: unit not given here; settings: 12 h
T2 construct: HaCaTs-produced SRD5A1 smoothly converted testosterone to DHT; endogenous in cells; host or cells: HaCaT human keratinocytes
T2 sequence (P18405 1-259): T1 sequence (P18405 1-259)
Description: The in vitro whole HaCaT cell-based assay for the kinetic inhibition against SRD5A1 included culturing the cells for 48 h, treating the cells with testosterone and compound 4 for 12 h and evaluating the % intensity of DHT and cell viability using HPTLC analysis and MTT assay, respectively. The HaCaT cells were seeded and incubated as same as the method shown in 3.8. For the evaluation of dose-dependent activity of testosterone, the different concentration of testosterone (0 − 50 μM) and DMEM with 0.1% DMSO were added. […] DMEM with 0.1% DMSO was used as negative control. Then, the cells were incubated for 12 h. The collection of cell culture medium, extraction process, sample preparation and HPTLC detection were prepared by the method mentioned above (3.8). The obtaining chromatogram was visualized by CAMAG HPTLC Software vision CATS and analyzed by Image J software. The percentage of DHT intensity was calculated based on the intensity of DHT normalized by the standard of DHT at 100 μM. At the same time, the cell viability of the treated cells was assessed by the MTT assay. Each experiment was repeated in triplicate.

Concentration dependence of inhibition of DHT production ([1]; 0.2–2.5 µM, HaCaT): concentration-dependent inhibition | IC50 ([1]; HaCaT cells, 10 µM testosterone, 24 h, read-out: IC50 of inhibition of DHT production (SRD5A1 activity)): 1440 ± 130 nM | inhibition at 2.5 µM ([1]; HaCaT, 2.5 µM, 12 h, read-out: Inhibition of SRD5A1 enzyme activity): ~50% | inhibition at 1 µM ([1]; HaCaT, compound 1.0 µM, HaCaT, 24 h, read-out: % Inhibition of DHT production ± SD): 46% | Potency of DHT inhibition relative to avicequinone C ([1]; IC50 1.44 vs 4.45 µM): 3 times | % Inhibition of DHT production ± SD ([1]; compound 1.0 µM, HaCaT, 24 h, 1 µM): 45.67 ± 3.57% | Apparent Vmax (HaCaTs-produced SRD5A1; compound 4 0.2 µM): 96.08 | Apparent Vmax (HaCaTs-produced SRD5A1; compound 4 0.5 µM): 76.27 | Apparent Vmax (HaCaTs-produced SRD5A1; compound 4 1.0 µM): 74.06 | Apparent Vmax (HaCaTs-produced SRD5A1; compound 4 2.5 µM): 69.85 | Ki (HaCaTs-produced SRD5A1; mixed-model inhibition analysis, non-linear): 2380 nM | % DHT intensity ± S.D. (HaCaTs-produced SRD5A1; testosterone 1 µM, compound 4 0.2 µM): 0.83 ± 0.219% | % DHT intensity ± S.D. (HaCaTs-produced SRD5A1; testosterone 1 µM, compound 4 0.5 µM): 0.70 ± 0.16% | % DHT intensity ± S.D. (HaCaTs-produced SRD5A1; testosterone 1 µM, compound 4 1.0 µM): 0.12 ± 0.01% | % DHT intensity ± S.D. (HaCaTs-produced SRD5A1; testosterone 1 µM, compound 4 2.5 µM): 0.13 ± 0.03% | % DHT intensity ± S.D. (HaCaTs-produced SRD5A1; testosterone 5 µM, compound 4 0.2 µM): 29.00 ± 1.829% | % DHT intensity ± S.D. (HaCaTs-produced SRD5A1; testosterone 5 µM, compound 4 0.5 µM): 44.57 ± 9.66% | % DHT intensity ± S.D. (HaCaTs-produced SRD5A1; testosterone 5 µM, compound 4 1.0 µM): 34.49 ± 3.82% | % DHT intensity ± S.D. (HaCaTs-produced SRD5A1; testosterone 5 µM, compound 4 2.5 µM): 0.31 ± 0.04% | % DHT intensity ± S.D. (HaCaTs-produced SRD5A1; testosterone 10 µM, compound 4 0.2 µM): 48.11 ± 5.339% | % DHT intensity ± S.D. (HaCaTs-produced SRD5A1; testosterone 10 µM, compound 4 0.5 µM): 23.04 ± 2.83% | % DHT intensity ± S.D. (HaCaTs-produced SRD5A1; testosterone 10 µM, compound 4 1.0 µM): 27.21 ± 2.98% | % DHT intensity ± S.D. (HaCaTs-produced SRD5A1; testosterone 10 µM, compound 4 2.5 µM): 30.48 ± 5.08% | % DHT intensity ± S.D. (HaCaTs-produced SRD5A1; testosterone 25 µM, compound 4 0.2 µM): 86.19 ± 4.08% | % DHT intensity ± S.D. (HaCaTs-produced SRD5A1; testosterone 25 µM, compound 4 0.5 µM): 71.91 ± 2.00% | % DHT intensity ± S.D. (HaCaTs-produced SRD5A1; testosterone 25 µM, compound 4 1.0 µM): 68.49 ± 0.95% | % DHT intensity ± S.D. (HaCaTs-produced SRD5A1; testosterone 25 µM, compound 4 2.5 µM): 46.20 ± 0.91% | % DHT intensity ± S.D. (HaCaTs-produced SRD5A1; testosterone 50 µM, compound 4 0.2 µM): 90.49 ±10.32% | % DHT intensity ± S.D. (HaCaTs-produced SRD5A1; testosterone 50 µM, compound 4 0.5 µM): 72.72 ± 12.38% | % DHT intensity ± S.D. (HaCaTs-produced SRD5A1; testosterone 50 µM, compound 4 1.0 µM): 65.61 ± 2.06% | % DHT intensity ± S.D. (HaCaTs-produced SRD5A1; testosterone 50 µM, compound 4 2.5 µM): 55.01 ± 2.40% | Mode of SRD5A1 inhibition (HaCaTs-produced SRD5A1; whole-cell): mixed inhibition
SMILES: O=C(C=Cc1ccc(O)c(O)c1)Nc1cc(C(F)(F)F)cc(C(F)(F)F)c1 [Compound 4, 3-(3,4-dihydroxyphenyl)-N-[3,5-bis (trifluoromethyl)phenyl]-2-propenamide]
Toxicity against DP cells [2]: no toxicity | Effect on mRNA expression of SRD5A1 (SRD5A1 mRNA): did not affect | Suppression of SRD5A1 protein expression relative to untreated control ([3]; 2.5 µM, 24 h): > 50% | SRD5A1 protein expression relative to control ([3]; 1 and 2.5 µM, 24 h): significant decrease | SRD5A1 protein level relative to control ([3]; 12 h): no significant changes
